Results: US4401659A, “Muramyl-peptides fixed to peptide-polymers and pharmaceutical compositions containing them” (Agence National de Valorisation de la Recherche (ANVAR), priority 1979, dated 1983)

Columns and labels:
Klebsiella pneumoniae = experiment: Anti-infectious activity with respect to Klebsiella, mice treated i.v. 24 hours before i.m. inoculation; assay type: in vivo; details: for Number of survivors at D + 8: controls 4 of 32; for Number of survivors at D + 5: controls 7 of 32; for Number of survivors at D + 3: controls 16 of 32; for Percentage of protection: difference in percentages of survivors versus control group
From the text: The testing procedure is described in the article of CHEDID L. and Col., Proc. Natl. Acad. Sci. USA, 1977, 74, 2089.
It was shown that a dose of about 10^4 Klebsiella pneumoniae, injected by the intramuscular route in mice, results in the progressive death of a considerable part, if not the whole, of the animals in the week following the inoculation. After eight days, the survival of the animals was definitely achieved.
The survival of groups of mice inoculated under the above-indicated conditions and treated by means of the products according to the invention, was recorded.
For these trials, hybrid mice (C57Bl/6 x AKR)F1 raised in the PASTEUR […], from strains derived from the C.N.R.S. breeding station at ORLEANS were used.
The infection by Klebsiella pneumoniae, a strain of the 2-capsular type, biotype d, was done from a culture of 16 hours in a medium for pneumococci (No. 53515, […] PASTEUR). The infecting dose was 1.5.10^4 Klebsiella; it was administered by the intramuscular route.
The administration of the tested product was carried out by the intravenous route in 0.2 ml of apyrogenic physiological solution, the controls receiving the solution alone. It was carried out 24 hours before the inoculation.
The percentage of protection indicated is the difference in the percentages of survivors of the treated group with respect to the control group.

Klebsiella = experiment: Anti-infectious activity with respect to Klebsiella, young mice of 7 days, s.c. treatment and s.c. infection; assay type: in vivo; details: for Number of survivors at D + 8: controls 0 of 53; for Number of survivors at D + 5: controls 1 of 53; for Number of survivors at D + 3: controls 5 of 53
Procedure: In these trials, the product studied was administered, by the sub-cutaneousroute, 24 hours before the infecting test. For the latter, the infecting dose was 1.2.10^3 Klebsiella; it was also administered by the sub-cutaneous route.

[1] = Sensitisation trials: plantar injection in IFA or CFA, dermal injection three weeks later
Procedure: These trials were undertaken to study the possible immunogenic properties of the products according to the invention. At the same time, sensitisation tests with respect to various products were carried out.
The tests were carried out on guinea-pigs. The preparations shown in column 1 of the Table of the results were injected by the plantar route. They comprise 100 μg of the product tested incorporated in incomplete FREUND adjuvant (IFA) or in complete FREUND adjuvant (CFA).
Three weeks after this first injection, 50 μg of the products indicated in the upper portion of the Table of results were injected by the dermal route. Possible reactions were observed 48 hours later.

[2] = i.v. at D-1, 1 μg (weight of glycopeptide), 24 mice
[3] = i.v. at D-1, 10 μg (weight of glycopeptide), 32 mice
[4] = s.c. at D-1, 1 μg, 39 young mice
[5] = s.c. at D-1, 10 μg, 75 young mice

multi-[poly-(N-acetyl-muramyl-D-alanyl-D-isoglutaminyl)-D,L-alanyl]-poly-L-lysine [MDP(D-D)(A--L)]
Number of survivors at D + 8 (Klebsiella pneumoniae; [2]): 6 | Number of survivors at D + 5 (Klebsiella pneumoniae; [2]): 7 | Number of survivors at D + 3 (Klebsiella pneumoniae; [2]): 15 | Percentage of protection (Klebsiella pneumoniae; [2]): 9% | Number of survivors at D + 8 (Klebsiella pneumoniae; [3]): 17 | Number of survivors at D + 5 (Klebsiella pneumoniae; [3]): 19 | Number of survivors at D + 3 (Klebsiella pneumoniae; [3]): 26 | Percentage of protection (Klebsiella pneumoniae; [3]): 38% | Number of survivors at D + 8 (Klebsiella; [4]): 3 | Number of survivors at D + 5 (Klebsiella; [4]): 6 | Number of survivors at D + 3 (Klebsiella; [4]): 19 | Number of survivors at D + 8 (Klebsiella; [5]): 18 | Number of survivors at D + 5 (Klebsiella; [5]): 28 | Number of survivors at D + 3 (Klebsiella; [5]): 50 | adjuvant to specific immunity ([1]; administered with ovalbumin): is not adjuvant to specific immunity | sensitivity reaction with respect to itself and to adjuvant agents like MDP ([1]; guinea-pigs): does not elicit a sensitivity reaction
